# Measured values taken from patent publication US4337266A, “Cytostatic terminally bifunctional sugar alcohols process for preparing them and pharmaceutical compositions containing them” (priority 1979, dated 1982).
# How the values were obtained:
# [1] = Toxicity tests, LD50 on mice after intraperitoneal administration; conditions: mouse, in vivo, ip
# Excerpt: LD50 values on mice after intraperitoneal administ-
# S-180 subcutan sarcoma = experiment: Activity against S-180 subcutan sarcoma; assay type: in vivo; conditions: 8 × 50 mg/kg/ip
# Excerpt: |Activity against S-180 subcutan sarcoma
# [2] = system: Walker intramuscular carcinosarcoma; experiment: Activity against Walker intramuscular carcinosarcoma; assay type: in vivo
# Excerpt: Activity against Walker intramuscular carcinosarcoma
SMILES,LD50 [1] [mg/kg],Antitumour activity (S-180 subcutan sarcoma) [%],Antitumour activity ([2]; 1 × 50 mg/kg/ip) [%],Antitumour activity ([2]; 1 × 100 mg/kg/ip) [%]
"CO[C@H]([C@H](OC)[C@@H]1CO1)[C@H]1CO1 [DMDAD, 1,2-5,6-dianhydro-3,4-dimethyl dulcitol]",680,80,55,80
"CO[C@H]([C@H](OC)[C@@H](O)CBr)[C@H](O)CBr [DMDBD, 1,6-dibromo-1,6-dideoxy-3,4-dimethyl dulcitol]",700,90,80,99
"CO[C@H]([C@@H]1CO1)[C@H]1CO1 [MMDAX, 1,2-4,5-dianhydro-3-methyl-xylitol]",500,75,,90
